Laboratory results from US8512725B2, “Method, material and system for controlled release of anti-microbial agents” (Bacstop Corporation Pty Ltd, priority 2004, dated 2013).

Key:
Test in all cases: Survival of bacteria inoculated into silver-treated water aliquots
Type in all cases: cell-based
[1] = test system: Pseudomonas aeruginosa ATCC 27853; conditions: initial concentration 5.62
Protocol: (§1) Several bacterial organisms, E. coli ATCC 11775, Pseudomonas aeruginosa ATCC 27853, and Bacillus cereus NCTC 10320 were inoculated into equal volumes of the abovementioned aliquots to achieve an initial bacterial concentration of approximately 10^6 cells per millilitre. After three predetermined time periods of 5 minutes, 1 hour, and 8 days, aliquots of each solution were withdrawn, and enumeration of surviving organisms was performed. All tests were conducted in duplicate.
(§2) All results are expressed in log10 units.

[2] = test system: E. coli ATCC 11775; conditions: initial concentration 5.81
Protocol: as §1, §2

[3] = test system: Bacillus cereus NCTC 10320; conditions: initial concentration 5.82
Protocol: as §1, §2

[4] = sodium hypochlorite 0.5 ppm, period 5 min
[5] = sodium hypochlorite 0.5 ppm, period 1 hour
[6] = sodium hypochlorite 0.5 ppm, period 8 days

Structure (SMILES): [Ag] [Silver, silver]
- surviving organisms, Pseudomonas aeruginosa ([1]; silver 50 ppb, period 5 min): 5.61 log10 units
- surviving organisms, Pseudomonas aeruginosa ([1]; silver 50 ppb, period 1 hour): 5.27 log10 units
- surviving organisms, Pseudomonas aeruginosa ([1]; silver 50 ppb, period 8 days): 3.23 log10 units
- surviving organisms, Pseudomonas aeruginosa ([1]; silver 111 ppb, period 5 min): 5.61 log10 units
- surviving organisms, Pseudomonas aeruginosa ([1]; silver 111 ppb, period 1 hour): 4.98 log10 units
- surviving organisms, Pseudomonas aeruginosa ([1]; silver 111 ppb, period 8 days): 2.59 log10 units
- surviving organisms, Pseudomonas aeruginosa ([1]; silver 190 ppb, period 5 min): 5.61 log10 units
- surviving organisms, Pseudomonas aeruginosa ([1]; silver 190 ppb, period 1 hour): 5.00 log10 units
- surviving organisms, Pseudomonas aeruginosa ([1]; silver 190 ppb, period 8 days): 1.10 log10 units
- surviving organisms, Pseudomonas aeruginosa ([1]; silver 373 ppb, period 5 min): 5.62 log10 units
- surviving organisms, Pseudomonas aeruginosa ([1]; silver 373 ppb, period 1 hour): 5.10 log10 units
- surviving organisms, Pseudomonas aeruginosa ([1]; silver 373 ppb, period 8 days): 2.00 log10 units
- surviving organisms, E. coli ([2]; silver 50 ppb, period 5 min): 5.81 log10 units
- surviving organisms, E. coli ([2]; silver 50 ppb, period 1 hour): 4.79 log10 units
- surviving organisms, E. coli ([2]; silver 50 ppb, period 8 days): 0 log10 units
- surviving organisms, E. coli ([2]; silver 111 ppb, period 5 min): 5.77 log10 units
- surviving organisms, E. coli ([2]; silver 111 ppb, period 1 hour): 4.48 log10 units
- surviving organisms, E. coli ([2]; silver 111 ppb, period 8 days): 0 log10 units
- surviving organisms, E. coli ([2]; silver 190 ppb, period 5 min): 5.76 log10 units
- surviving organisms, E. coli ([2]; silver 190 ppb, period 1 hour): 3.74 log10 units
- surviving organisms, E. coli ([2]; silver 190 ppb, period 8 days): 0 log10 units
- surviving organisms, E. coli ([2]; silver 373 ppb, period 5 min): 5.79 log10 units
- surviving organisms, E. coli ([2]; silver 373 ppb, period 1 hour): 3.88 log10 units
- surviving organisms, E. coli ([2]; silver 373 ppb, period 8 days): 0 log10 units
- surviving organisms, Bacillus cerus ([3]; silver 50 ppb, period 5 min): 4.60 log10 units
- surviving organisms, Bacillus cerus ([3]; silver 50 ppb, period 1 hour): 2.30 log10 units
- surviving organisms, Bacillus cerus ([3]; silver 50 ppb, period 8 days): 0 log10 units
- surviving organisms, Bacillus cerus ([3]; silver 111 ppb, period 5 min): 4.20 log10 units
- surviving organisms, Bacillus cerus ([3]; silver 111 ppb, period 1 hour): 2.00 log10 units
- surviving organisms, Bacillus cerus ([3]; silver 111 ppb, period 8 days): 0 log10 units
- surviving organisms, Bacillus cerus ([3]; silver 190 ppb, period 5 min): 4.28 log10 units
- surviving organisms, Bacillus cerus ([3]; silver 190 ppb, period 1 hour): 1.93 log10 units
- surviving organisms, Bacillus cerus ([3]; silver 190 ppb, period 8 days): 0 log10 units
- surviving organisms, Bacillus cerus ([3]; silver 373 ppb, period 5 min): 4.19 log10 units
- surviving organisms, Bacillus cerus ([3]; silver 373 ppb, period 1 hour): 0 log10 units
- surviving organisms, Bacillus cerus ([3]; silver 373 ppb, period 8 days): 0 log10 units

Structure (SMILES): [Na+].[O-]Cl [NaOCl, sodium hypochlorite, reference compound]
- surviving organisms, Pseudomonas aeruginosa [1, 4]: 5.62 log10 units
- surviving organisms, Pseudomonas aeruginosa [1, 5]: 5.63 log10 units
- surviving organisms, Pseudomonas aeruginosa [1, 6]: 4.98 log10 units
- surviving organisms, E. coli [2, 4]: 5.82 log10 units
- surviving organisms, E. coli [2, 5]: 5.81 log10 units
- surviving organisms, E. coli [2, 6]: 4.48 log10 units
- surviving organisms, Bacillus cerus [3, 4]: 4.61 log10 units
- surviving organisms, Bacillus cerus [3, 5]: 4.61 log10 units
- surviving organisms, Bacillus cerus [3, 6]: 4.90 log10 units
